# Results published in patent US20230287217A1, “Zwitterionic Cell-Permeant and Water-Soluble Rhodamine Dyes for Quantitative Imaging Applications” (OREGON HEALTH & SCIENCE UNIVERSITY, priority 2020, published 2023).
# Assays:
# [1] = Absorption and fluorescence stability against solvent polarity changes (dioxane 20-80% in DI water); format: physicochemical; conditions: compared with base fluorophores TMR and SiTMR (SiR)
# Text: FIG. 2D graphs normalized absorption (left) and fluorescence spectra (right) of fluorophores with varied percentages of dioxane (20-80%) in DI water resulting the polarity of the screening solvent systems changing in a gradient manner.
# A. general rhodamine fluorophore structures including the classic TMR, SiTMR, and the sulfonated versions. […] This structural change results because the carboxylate anion attacks the central carbon forming a spirolactone, which is both colorless and non-fluorescent. […] C. […] This change in both absorbance and fluorescence intensity was alleviated using our sulfonated versions.
# [2] = UV-Vis absorption and fluorescence spectroscopy (spectral properties in aqueous media / PBS buffer); format: physicochemical; parameters: Brightness: unit not given here; conditions: for Brightness / Stokes Shift (nm) / FWHMabs (nm) / λabs (nm) / FWHem (nm) / λem (nm) / ε (M^-1 cm-1) / ϕ: aqueous media; for FWHMabs (nm): absorption band width; for λabs (nm): absorption maximum; for FWHem (nm): emission band width; for λem (nm): emission maximum; for ε (M^-1 cm-1): extinction coefficient from Beer's Law plots; for ϕ: relative quantum yield, TMR and SiTMR as reference
# Protocol: UV-Vis and fluorescence spectra were collected on a SpectraMax M5 spectrometer with a Microplate reader (Molecular Devices, Sunnyvale, CA). All absorbance spectra were reference corrected. Extinction coefficient was calculated from Beer’s Law plots of absorbance versus concentration. Relative quantum yields are reported using TMR and SiTMR as reference.
SMILES,stability of absorbance and fluorescence intensity against solvent polarity changes [1],Brightness [2],Stokes Shift (nm) [2],FWHMabs (nm) [2],λabs (nm) [2],FWHem (nm) [2],λem (nm) [2],ε (M^-1 cm-1) [2],ϕ [2],brightness compared with the base fluorophore SiTMR ([2]; PBS buffer)
CN(C)c1ccc2c(c1)[Si](C)(C)C1=CC(=[N+](C)C)C=CC1=C2c1ccccc1C(=O)O [SiR],diminished rapidly,7,20 nm,39 nm,642 nm,41 nm,662 nm,"19,200 M^-1 cm-1",0.35,
Cc1ccccc1C1=C2C=C/C(=[N+](/C)CCCS(=O)(=O)[O-])C=C2[Si](C)(C)c2cc(N(C)C)ccc21 [OF650],substantially improved stability,55,19 nm,33 nm,649 nm,40 nm,668 nm,"125,500 M^-1 cm-1",0.44,five time greater
"C#Cc1cccc(Nc2ncnc3ccc(NC(=O)CCNC(=O)c4ccc(-c5c6cc/c(=[N+](/C)CCCS(=O)(=O)[O-])cc-6oc6cc(N(C)C)ccc56)c(C)c4)cc23)c1 [OF550Erl(T), (E)((6-(dimethylamino)-9-(4-((3-((4-((3-ethynylphenyl)amino)quinazolin-6-yl)amino)oxopropyl)carbamoyl)-2-methylphenyl)-3H-xanthenylidene)(methyl)ammonio)propane-1-sulfonate]",,7,17 nm,80 nm,566 nm,47 nm,583 nm,"24,500 M^-1 cm-1",0.28,
"Cc1cc(C(=O)NCc2ccc(COc3nc(N)nc4[nH]cnc34)cc2)ccc1-c1c2cc/c(=[N+](/C)CCCS(=O)(=O)[O-])cc-2oc2cc(N(C)C)ccc12 [OF550SNAP, (E)((9-(4-((4-(((2-amino-9H-purin-6-yl)oxy)methyl)benzyl)carbamoyl)-2-methylphenyl)-6-(dimethylamino)-3H-xanthenylidene)(methyl)ammonio)propane-1-sulfonate]",,21,24 nm,38 nm,556 nm,43 nm,580 nm,"59,500 M^-1 cm-1",0.36,
C#Cc1cccc(Nc2ncnc3ccc(NC(=O)CCNC(=O)c4ccc(C(=O)[O-])c(-c5c6ccc(=[N+](C)C)cc-6oc6cc(N(C)C)ccc56)c4)cc23)c1 [TMRErl(T)],,21,24 nm,39 nm,563 nm,42 nm,587 nm,"33,100 M^-1 cm-1",0.62,
"Cc1cc(C(=O)NCCCn2cc(-c3cccc(Nc4ncnc5ccccc45)c3)nn2)ccc1-c1c2cc/c(=[N+](/C)CCCS(=O)(=O)[O-])cc-2oc2cc(N(C)C)ccc12 [OF550Erl(UnT), (E)((6-(dimethylamino)-9-(2-methyl-4-((3-(4-(3-(quinazolin-4-ylamino)phenyl)-1H-1,2,3-triazol-1-yl)propyl)carbamoyl)phenyl)-3H-xanthenylidene)(methyl)ammonio)propane-1-sulfonate]",,35,25 nm,35 nm,560 nm,44 nm,585 nm,"50,200 M^-1 cm-1",0.69,
"Cc1cc(C(=O)[O-])ccc1C1=C2C=C/C(=[N+](/C)CCCS(=O)(=O)O)C=C2[Si](C)(C)c2cc(N(C)C)ccc21 [OF650COOH, (E)-3-((10-(4-carboxy-2-methylphenyl)-7-(dimethylamino)-5,5-dimethyldibenzo[b,e]silin-3(5H)-ylidene)(methyl)ammonio)propane-1-sulfonate]",,82,22 nm,34 nm,650 nm,42 nm,672 nm,"200,600 M^-1 cm-1",0.41,
Cc1ccccc1-c1c2cc/c(=[N+](/C)CCCS(=O)(=O)[O-])cc-2oc2cc(N(C)C)ccc12 [OF550],substantially improved stability,59,23 nm,33 nm,552 nm,40 nm,575 nm,"97,300 M^-1 cm-1",0.61,
C#Cc1cccc(Nc2ncnc3ccc(NC(=O)CCNC(=O)c4ccc(C(=O)[O-])c(C5=C6C=CC(=[N+](C)C)C=C6[Si](C)(C)c6cc(N(C)C)ccc65)c4)cc23)c1 [SiRErl(T)],,5,22 nm,42 nm,656 nm,53 nm,678 nm,"34,800 M^-1 cm-1",0.13,
"Cc1cc(C(=O)NCCOCCOCCCCCCCl)ccc1-c1c2cc/c(=[N+](/C)CCCS(=O)(=O)[O-])cc-2oc2cc(N(C)C)ccc12 [OF550HALO, (E)((9-(4-((2-(2-((6-chlorohexyl)oxy)ethoxy)ethyl)carbamoyl)-2-methylphenyl)-6-(dimethylamino)-3H-xanthenylidene)(methyl)ammonio)propane-1-sulfonate]",,53,25 nm,34 nm,556 nm,42 nm,581 nm,"97,200 M^-1 cm-1",0.55,
"CN(C)c1ccc2c(c1)[Si](C)(C)C1=CC(=[N+](C)C)C=CC1=C2c1cc(C(=O)O)ccc1C(=O)[O-] [SiRCOOH, 4-carboxy-2-(7-(dimethylamino)-3-(dimethyliminio)-5,5-dimethyl-3,5-dihydrodibenzo[b,e]silin-10-yl)benzoate]",,29,22 nm,39 nm,645 nm,42 nm,667 nm,"64,700 M^-1 cm-1",0.45,
